Data from ChEMBL document CHEMBL4339226, “Novel Compounds Targeting the RNA-Binding Protein HuR. Structure-Based Design, Synthesis, and Interaction Studies” (ACS Med Chem Lett, 2019).
Calls of active or inactive are those of the source. The calls are words filed in the database; no cut-off is given here.

Assays:
[1] = molecular target: ELAV-like protein 1 (Homo sapiens) (UniProt Q15717); assay: Binding affinity to HuR (unknown origin) assessed as absolute STD percentage for ring B moiety by 1H-STD-NMR spectroscopic analysis
[2] = molecular target: ELAV-like protein 1 (Homo sapiens) (UniProt Q15717); assay: Binding affinity to HuR (unknown origin) assessed as absolute STD percentage for ring A moiety by 1H-STD-NMR spectroscopic analysis
[3] = molecular target: ELAV-like protein 1 (Homo sapiens) (UniProt Q15717); assay: Binding affinity to HuR (unknown origin) assessed as absolute STD percentage for protons of the amino chain (H14, H15, and H16) by 1H-STD-NMR spectroscopic analysis
[4] = molecular target: ELAV-like protein 1 (Homo sapiens) (UniProt Q15717); assay: Binding affinity to HuR (unknown origin) assessed as absolute STD percentage for isopropyl moiety by 1H-STD-NMR spectroscopic analysis
[5] = molecular target: ELAV-like protein 1 (Homo sapiens) (UniProt Q15717); assay: Binding affinity to HuR (unknown origin) assessed as absolute STD percentage for ring C moiety by 1H-STD-NMR spectroscopic analysis
[6] = molecular target: ELAV-like protein 1 (Homo sapiens) (UniProt Q15717); assay: Binding affinity to HuR (unknown origin) assessed as absolute STD percentage for pyridone moiety by 1H-STD-NMR spectroscopic analysis
[7] = Solubility of the compound; format: physicochemical

Sequence of ELAV-like protein 1 (Homo sapiens) (Q15717 whole entry): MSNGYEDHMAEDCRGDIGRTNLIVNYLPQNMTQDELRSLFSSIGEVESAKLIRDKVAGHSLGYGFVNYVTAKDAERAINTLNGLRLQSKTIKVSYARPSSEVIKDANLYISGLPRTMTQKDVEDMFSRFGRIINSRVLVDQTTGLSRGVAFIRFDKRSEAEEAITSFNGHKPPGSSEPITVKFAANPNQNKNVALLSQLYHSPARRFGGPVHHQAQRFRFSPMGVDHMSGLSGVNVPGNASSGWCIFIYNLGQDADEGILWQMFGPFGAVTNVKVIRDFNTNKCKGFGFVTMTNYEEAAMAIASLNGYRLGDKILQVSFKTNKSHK

| Activity [1] [%] | Activity [2] [%] | Activity [3] | Activity [4] [%] | Activity [5] [%] | Activity [6] [%] | solubility [7] | Compound |
| --- | --- | --- | --- | --- | --- | --- | --- |
| 0.03 | 0.2 | inactive | 0.4 |  |  |  | COc1cc(OC)cc([C@@H]2[C@@H](C(=O)NCCNCc3ccccc3)CCC(=O)N2CC(C)C)c1 (racemic) |
| 0.36 | 0.4 |  |  | 0.25 |  |  | O=C(c1ccc(O)cc1)N(CCc1cc(O)cc(O)c1)Cc1cccc(Cl)c1 |
|  |  |  | 0.3 |  | 1.2 |  | CC(C)Cn1cnc(-c2cccc(Oc3ccccc3)c2)c1-c1ccc(=O)[nH]c1 |
|  |  |  |  |  |  | Insoluble | COc1cc(OC)cc(-c2nc3sccn3c2NCCNC(=O)OCc2ccccc2)c1.Cl |
